Assays:
[1] = system: zymosan-stimulated footpad edema; test: Mouse zymosan-stimulated footpad edema reaction; type: in vivo; conditions: ICR female mice, oral 0.1 to 500 mg/kg, compared with positive control group
Procedure, shortened: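 Female ICR mice (6–7 weeks, n=8) dosed orally at 0.1 to 500 mg/kg in 0.5% methylcellulose; 1 h later zymosan (1 mg/ml, 0.02 ml) injected s.c. into right hind footpad. Edema volume at 1 and 2 h gave AUC to 2 h; suppression (%) calculated against positive control AUC.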

[2] = system: IgE-stimulated footpad edema; test: Mouse IgE-stimulated footpad edema reaction; type: in vivo; conditions: C57BL/6 male mice, oral 0.1 to 500 mg/kg, compared with positive control group
Procedure, shortened: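 Male C57BL/6 mice (9–11 weeks, n=5) sensitised one day earlier by footpad injection of anti-DNP-BSA IgE serum; compound given orally in 0.5% methylcellulose at 0.1 to 500 mg/kg, then DNP-BSA i.v. 2 h later. Footpad swelling measured at 10–30 min, expressed as AUC and % suppression versus vehicle control.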

[3] = system: PGE2 production from IL-1β-stimulated MG-63 cells; test: Suppressing action on PGE2 production from IL-1β-stimulated MG-63 cells; type: cell-based; conditions: Homo sapiens, IL-1β 1 ng/ml, 18 hours, read-out: PGE2 production suppression ratio
Procedure, shortened: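 PGE2 in 18 h supernatants was quantified by EIA and expressed as % suppression relative to IL-1β-only and unstimulated controls. Cells were the MG-63 osteosarcoma line, plated at 2×10^4/well, given compound in 0.5% FBS EMEM, then 1 ng/ml IL-1β final.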

[4] = system: LTB4 production from IgE-stimulated RBL-2H3 cells; test: Suppressing action on LTB4 production from IgE-stimulated RBL-2H3 cells; type: cell-based; conditions: Rattus norvegicus, 10 min, IgE/DNP-BSA stimulated RBL-2H3 cells, read-out: LTB4 production suppression ratio
Procedure, shortened: (§1)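 Rat RBL-2H3 mastocytoma cells, sensitized 30 min with anti-DNP-BSA IgE, then given test compound in 0.5% FBS medium and stimulated with DNP-BSA (100 ng/ml final). Supernatant PGD2 and LTB4 were measured by EIA after 10 min. Suppression ratio is calculated against unstimulated and stimulant-only controls.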

[5] = system: PGD2 production from IgE-stimulated RBL-2H3 cells; test: Suppressing action on PGD2 production from IgE-stimulated RBL-2H3 cells; type: cell-based; conditions: Rattus norvegicus, 10 min, IgE/DNP-BSA stimulated RBL-2H3 cells, read-out: PGD2 production suppression ratio
Procedure, shortened: as §1

Structure (SMILES) | suppression of footpad edema caused by zymosan [1] | suppression of footpad edema caused by IgE stimulation [2] | inhibition at 0.4 µM [3] [%] | inhibition at 0.4 µM [4] [%] | inhibition at 0.4 µM [5] [%]
Cn1ccc2cc(-c3cc(CCC(=O)O)ccc3OCc3ccccc3Cl)ccc21 [Compound 245, 3-[4-(2-chlorophenylmethyloxy)-3-(1-methyl-1H-indol-5-yl)phenyl]propionic acid] | suppressed footpad edema | suppressed the footpad edema | ≥ 50 | ≥ 50 | ≥ 50
Nc1nc2ccc(-c3cc(CCC(=O)O)ccc3OC3CCCC3)cc2s1 [Compound 293, 3-[3-(2-aminobenzothiazol-6-yl)-4-cyclopentyloxyphenyl]propionic acid] | suppressed footpad edema | suppressed the footpad edema | ≥ 50 | ≥ 50 | ≥ 50
CCn1ccc2cc(-c3cc(CCC(=O)O)ccc3OCC3CCCC3)ccc21 [Compound 236, 3-[4-cyclopentylmethyloxy-3-(1-ethyl-1H-indol-5-yl)phenyl]propionic acid] | suppressed footpad edema | suppressed the footpad edema | ≥ 50 | ≥ 50 | ≥ 50
CCn1ccc2cc(-c3cc(CCC(=O)O)ccc3OC3CCCCC3)ccc21 [Compound 248, 3-[4-cyclohexyloxy-3-(1-ethyl-1H-indol-5-yl)phenyl]propionic acid] | suppressed footpad edema | suppressed the footpad edema | ≥ 50 | ≥ 50 | ≥ 50
Nc1nc2ccc(-c3cc(CCC(=O)O)ccc3OCC3CCCCC3)cc2s1 [Compound 289, 3-[3-(2-aminobenzothiazol-6-yl)-4-cyclohexylmethyloxyphenyl]propionic acid] | suppressed footpad edema | suppressed the footpad edema | ≥ 50 | ≥ 50 | ≥ 50
O=C(O)CCc1ccc(OCC2CCCC2)c(-c2ccc3sccc3c2)c1 [Compound 281, 3-[3-(benzo[b]thiophen-5-yl)-4-cyclopentylmethyloxyphenyl]propionic acid] | suppressed footpad edema | suppressed the footpad edema | ≥ 50 | ≥ 50 | ≥ 50
O=C(O)CCc1ccc(OCC2CCCC2)c(-c2ccc3c(ccn3CCO)c2)c1 [Compound 243, 3-{4-cyclopentylmethyloxy-3-[1-(2-hydroxyethyl)-1H-indol-5-yl]phenyl}propionic acid] | suppressed footpad edema | suppressed the footpad edema | ≥ 50 | ≥ 50 | ≥ 50
Cn1ccc2cc(-c3cc(CCC(=O)O)ccc3OC3CCCC3)ccc21 [Compound 108, 3-[4-cyclopentyloxy-3-(1-methyl-1H-indol-5-yl)phenyl]propionic acid] | suppressed footpad edema | suppressed the footpad edema | ≥ 50 | ≥ 50 | ≥ 50
O=C(O)CCc1ccc(OCC2CCCCC2)c(-c2cnc3ccccc3c2)c1 [Compound 317, 3-[4-cyclohexylmethyloxy-3-(quinolin-3-yl)phenyl]propionic acid] | suppressed footpad edema | suppressed the footpad edema | ≥ 50 | ≥ 50 | ≥ 50

From patent US6867320B2, “Substituted phenylalkanoic acid derivatives and use thereof” (Asahi Kasei Pharma Corporation, priority 2002, dated 2005)
